Literature values as cited in patent publication US20110086369A1, “FLUORESCENT COMPOUNDS FOR THE DIAGNOSIS OF INFECTIONS, PRODUCTION METHOD, AND APPLICATIONS THEREOF” (priority 2008, published 2011).

Tested on: Leishmania
Conditions: in Leishmania

Question: Which intracellular concentration does the source give for `CCCCCCCCCCCCCCCCOP(=O)([O-])OCC[N+](C)(C)C` [MT, hexadecylphosphocholine] here?
Answer: values in the millimolar rank
